From patent US11707439B2, “Parenteral treatments involving aminoadamantane derivatives” (Shinkei Therapeutics, Inc., priority 2019, dated 2023)
Where a name gives a salt, the structure may show the parent alone. Read-outs that look alike come from different tables or passages of the source.

Key:
[1] = Pharmacokinetic study in 10 healthy subjects: intravenous infusion vs oral capsules; assay type: in vivo, human; conditions: for Tmax / Cmax / half-life: fasted healthy subjects
fluid percussion injury = conditions: chronic amantadine-pumping infusion, cited from earlier work
[2] = postmortem brain tissue of 21 patients previously treated with amantadine sulfate; cited from earlier work
[3] = tested on: persistent vegetative state; conditions: single patient; 100 mg/day intravenously increased to 300 mg/day, then enteral; cited from earlier work
[4] = Osmolality of amantadine hydrochloride solution in sterile water for injection; assay type: physicochemical
Description: Examples of tonicity agents that can be used in the compositions of the present invention include, but are not limited to, sodium chloride, mannitol, dextrose, potassium chloride, sodium chloride and mixtures thereof. The tonicity agents may be present in an amount so as to provide osmolality of from about 250 mOsm/kg to about 350 mOsm/kg, particularly from 280 mOsm/kg to 320 mOsm/kg.

[5] = continuous subcutaneous administration, Parkinson's disease patients; cited from earlier work

NC12CC3CC(CC(C3)C1)C2 [amantadine, 1-amantanamine]
Peak and total plasma exposures following the infusion, lower than reference oral dose ([1]; 50 mg intravenous infusion vs 200 mg oral dose): approximately 5 fold
Tmax ([1]; human, plasma, iv, 50 mg, Treatment A: single 50 mg dose, intravenous infusion over 180 minutes, plasma, read-out: mean Tmax): 4.1 h
Tmax ([1]; human, plasma, iv, 50 mg, Treatment A: single 50 mg dose, intravenous infusion over 180 minutes, plasma, read-out: median Tmax): 4 h
Tmax ([1]; human, plasma, po, 200 mg, Treatment B: single 200 mg oral dose as 2×100 mg capsules, plasma, read-out: mean Tmax): 3.6 h
Tmax ([1]; human, plasma, po, 200 mg, Treatment B: single 200 mg oral dose as 2×100 mg capsules, plasma, read-out: median Tmax): 2.8 h
bioavailability ([1]; human, plasma, 200 mg oral, from LSGM A/B ratio of CLIV to CLIV/F, read-out: bioavailability of the oral capsule): 122%
Cmax ([1]; human, Treatment A: single 50 mg dose, intravenous infusion over 180 minutes, plasma): 142 ng/mL
half-life ([1]; human, Treatment A: single 50 mg dose, intravenous infusion over 180 minutes, plasma, read-out: mean apparent first-order elimination half-life (T1/2) (converted)): 14 h
Cmax ([1]; human, Treatment B: single 200 mg oral dose as 2×100 mg capsules, plasma): 643 ng/mL
half-life ([1]; human, Treatment B: single 200 mg oral dose as 2×100 mg capsules, plasma, read-out: mean T1/2 (converted)): 14.6 h
dopamine-release deficits (fluid percussion injury; rats after fluid percussion injury): reversed
behavioral impairment after fluid percussion injuries (fluid percussion injury; rats): ameliorated
elimination half-life from brain tissue [2]: much longer than from blood
clinical outcome in persistent vegetative state [3]: stunning awakening of the patient, fully orientated within days

NC12CC3CC(CC(C3)C1)C2 [amantadine hydrochloride]
Osmolality ([4]; 10 mg/ml solution in sterile water for injection): 97 mOsm/kg
Osmolality ([4]; 20 mg/ml solution in sterile water for injection): 192 mOsm/kg
Osmolality ([4]; 30 mg/ml solution in sterile water for injection): 283 mOsm/kg
Osmolality ([4]; 40 mg/ml solution in sterile water for injection): 369 mOsm/kg
Osmolality ([4]; 50 mg/ml solution in sterile water for injection): 509 mOsm/kg
Osmolality ([4]; 75 mg/ml solution in sterile water for injection): 671 mOsm/kg

CN1CCc2cccc3c2[C@H]1Cc1ccc(O)c(O)c1-3 [apomorphine]
eosinophilia and orthostatic hypotension, share of PD patients [5]: less than 5%
